Assay results published in patent US20260356830A1, “COMPOUNDS FOR MODULATING RET PROTEIN” (Bristol-Myers Squibb Company, priority 2022, published 2026).

Molecular target: T1, CCDC6-RET (Homo sapiens, UniProt P07949+Q16204+Q96SW2)
T1 construct: CCDC6 (natural N-terminal fusion partner, UniProt Q16204); endogenous in cells; host or cells: TPC-1 (parental, papillary thyroid carcinoma)
Experiment: Cellular RET degradation, AlphaLISA, TPC-1 cell line
Type: cell-based
Conditions: for Dmax: TPC1, human, 24 h, read-out: Cell Density TPC-1/CCDC6-RET Ymax %; for DC50: read-out: Cell Density TPC-1/CCDC6-RET DC50, half-maximal degradation concentration, TPC-1 (CCDC6-RET), 24 hrs
Summary of the method: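 Luminescent AlphaLISA read of RET abundance in lysates after 24 h compound exposure (37 °C, 2% FBS DMEM) of CCDC6-RET-bearing TPC-1 cells. % degradation relative to DMSO (high) and media (low) controls, fitted to 4-parameter logistic curve for DC50 and Ymax.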

T1 sequence (Q16204+P07949 fused): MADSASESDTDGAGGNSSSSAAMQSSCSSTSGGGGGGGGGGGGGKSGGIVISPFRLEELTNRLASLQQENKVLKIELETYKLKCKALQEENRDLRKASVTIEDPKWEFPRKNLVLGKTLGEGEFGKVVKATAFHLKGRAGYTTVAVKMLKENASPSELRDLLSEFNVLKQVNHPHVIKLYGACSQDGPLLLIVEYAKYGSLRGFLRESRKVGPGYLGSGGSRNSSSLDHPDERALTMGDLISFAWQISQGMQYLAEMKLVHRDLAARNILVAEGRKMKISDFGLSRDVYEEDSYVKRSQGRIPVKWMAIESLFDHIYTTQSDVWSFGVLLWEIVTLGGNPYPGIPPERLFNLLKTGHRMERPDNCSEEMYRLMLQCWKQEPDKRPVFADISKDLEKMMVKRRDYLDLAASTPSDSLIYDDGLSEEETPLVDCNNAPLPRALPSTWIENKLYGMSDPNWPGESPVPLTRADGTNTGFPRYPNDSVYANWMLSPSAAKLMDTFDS
T1 sequence (Q96SW2 whole entry, the tested form may be a part): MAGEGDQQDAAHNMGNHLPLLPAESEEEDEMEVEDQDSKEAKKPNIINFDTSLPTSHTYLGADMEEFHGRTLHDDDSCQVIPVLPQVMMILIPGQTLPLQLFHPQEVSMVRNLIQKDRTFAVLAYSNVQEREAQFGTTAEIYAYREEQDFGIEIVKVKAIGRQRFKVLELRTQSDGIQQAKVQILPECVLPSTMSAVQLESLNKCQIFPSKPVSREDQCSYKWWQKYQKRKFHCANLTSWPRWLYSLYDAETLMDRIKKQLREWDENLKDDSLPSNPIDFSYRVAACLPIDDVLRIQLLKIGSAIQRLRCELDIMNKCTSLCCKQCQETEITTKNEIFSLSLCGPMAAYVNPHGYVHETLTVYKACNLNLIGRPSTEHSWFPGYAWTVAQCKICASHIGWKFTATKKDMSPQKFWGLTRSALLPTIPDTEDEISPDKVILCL
T1 sequence (Q16531 whole entry partner, the tested form may be a part): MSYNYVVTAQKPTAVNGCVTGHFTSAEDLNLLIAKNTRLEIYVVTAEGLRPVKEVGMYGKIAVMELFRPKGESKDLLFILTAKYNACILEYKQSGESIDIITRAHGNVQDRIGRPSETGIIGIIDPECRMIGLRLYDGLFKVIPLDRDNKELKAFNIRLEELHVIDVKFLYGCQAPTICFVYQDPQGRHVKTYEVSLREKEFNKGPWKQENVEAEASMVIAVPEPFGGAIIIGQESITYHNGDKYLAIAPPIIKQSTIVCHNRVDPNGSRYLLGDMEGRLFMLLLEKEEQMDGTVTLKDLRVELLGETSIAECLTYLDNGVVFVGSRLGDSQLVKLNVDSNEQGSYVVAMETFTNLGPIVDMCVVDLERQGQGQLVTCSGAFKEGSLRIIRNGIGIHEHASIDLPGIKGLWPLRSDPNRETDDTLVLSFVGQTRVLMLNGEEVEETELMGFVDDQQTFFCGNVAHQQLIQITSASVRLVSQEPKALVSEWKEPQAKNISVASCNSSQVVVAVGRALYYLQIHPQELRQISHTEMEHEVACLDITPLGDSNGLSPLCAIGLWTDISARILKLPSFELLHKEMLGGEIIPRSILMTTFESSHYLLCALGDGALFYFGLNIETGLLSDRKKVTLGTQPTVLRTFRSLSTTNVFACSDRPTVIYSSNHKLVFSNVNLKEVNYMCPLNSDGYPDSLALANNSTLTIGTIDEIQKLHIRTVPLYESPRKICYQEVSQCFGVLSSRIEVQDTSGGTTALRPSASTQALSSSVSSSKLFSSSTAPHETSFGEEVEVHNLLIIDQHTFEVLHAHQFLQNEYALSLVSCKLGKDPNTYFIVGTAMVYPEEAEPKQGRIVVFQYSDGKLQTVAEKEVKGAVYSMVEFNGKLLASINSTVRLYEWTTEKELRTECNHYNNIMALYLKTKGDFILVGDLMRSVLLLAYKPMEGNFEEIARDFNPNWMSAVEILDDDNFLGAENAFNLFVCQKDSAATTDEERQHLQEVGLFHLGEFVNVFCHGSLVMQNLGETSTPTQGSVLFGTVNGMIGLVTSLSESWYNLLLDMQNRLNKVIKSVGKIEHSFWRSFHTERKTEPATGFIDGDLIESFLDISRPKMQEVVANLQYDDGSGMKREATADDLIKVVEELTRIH

| Structure (SMILES) | Dmax [%] | DC50 [nM] |
| --- | --- | --- |
| CCOc1cc(-c2ccc(N3CCC(CN4CCN(CCC(=O)N5CCC6(CC5)CCN(c5ccc7c(c5)CN(C5CCC(=O)NC5=O)C7=O)CC6)CC4)(NC(=O)c4cc(F)ccc4F)CC3)nc2)c2c(C#N)cnn2c1 (stereo not drawn) [Example 90, N-[1-(5-{3-cyano-6-ethoxypyrazolo[1,5-a]pyridin-4-yl}pyridin-2-yl)-4-{[4-(3-{9-[2-(2,6-dioxopiperidin-3-yl)-1-oxo-2,3-dihydro-1H-isoindol-5-yl]-3,9-diazaspiro[5.5]undecan-3-yl}-3-oxopropyl)piperazin-1-yl]methyl}piperidin-4-yl]-2,5-difluorobenzamide] | > 90 | 10 to 100 |
| CCOc1cc(-c2ccc(N3CCC(CN4CCC5(CC4)CCN(C(=O)c4ccc6c(c4)C(=O)N(C4CCC(=O)NC4=O)C6)CC5)(NC(=O)c4cc(F)ccc4F)CC3)nc2)c2c(C#N)cnn2c1 (stereo not drawn) [Example 96, N-[1-(5-{3-cyano-6-ethoxypyrazolo[1,5-a]pyridin-4-yl}pyridin-2-yl)-4-({9-[2-(2,6-dioxopiperidin-3-yl)-3-oxo-2,3-dihydro-1H-isoindole-5-carbonyl]-3,9-diazaspiro[5.5]undecan-3-yl}methyl)piperidin-4-yl]-2,5-difluorobenzamide] | 60 to 90 | 10 to 100 |
| CCOc1cc(-c2ccc(N3CCC(CN4CC5(C4)CN(C(=O)COc4ccc6c(c4)CN(C4CCC(=O)NC4=O)C6=O)C5)(NC(=O)c4cc(F)ccc4F)CC3)nc2)c2c(C#N)cnn2c1 (stereo not drawn) [Example 97, N-[1-(5-{3-cyano-6-ethoxypyrazolo[1,5-a]pyridin-4-yl}pyridin-2-yl)-4-{[6-(2-{[2-(2,6-dioxopiperidin-3-yl)-1-oxo-2,3-dihydro-1H-isoindol-5-yl]oxy}acetyl)-2,6-diazaspiro[3.3]heptan-2-yl]methyl}piperidin-4-yl]-2,5-difluorobenzamide] | 60 to 90 | 2 to 10 |
| CCOc1cc(-c2ccc(N3CCC(CN4CCC5(CC4)CCN(C(=O)Cc4ccc6c(c4)CN(C4CCC(=O)NC4=O)C6=O)CC5)(NC(=O)c4cc(F)ccc4F)CC3)nc2)c2c(C#N)cnn2c1 (stereo not drawn) [Example 98, N-[1-(5-{3-cyano-6-ethoxypyrazolo[1,5-a]pyridin-4-yl}pyridin-2-yl)-4-[(9-{2-[2-(2,6-dioxopiperidin-3-yl)-1-oxo-2,3-dihydro-1H-isoindol-5-yl]acetyl}-3,9-diazaspiro[5.5]undecan-3-yl)methyl]piperidin-4-yl]-2,5-difluorobenzamide] | > 90 | 2 to 10 |
| CCOc1cc(-c2ccc(N3CCC(CN4CCN(CCOCCC(=O)N5CCN(c6ccc7c(c6)CN(C6CCC(=O)NC6=O)C7=O)CC5)CC4)(NC(=O)c4cc(F)ccc4F)CC3)nc2)c2c(C#N)cnn2c1 (stereo not drawn) [Example 100, N-[1-(5-{3-cyano-6-ethoxypyrazolo[1,5-a]pyridin-4-yl}pyridin-2-yl)-4-({4-[2-(3-{4-[2-(2,6-dioxopiperidin-3-yl)-1-oxo-2,3-dihydro-1H-isoindol-5-yl]piperazin-1-yl}-3-oxopropoxy)ethyl]piperazin-1-yl}methyl)piperidin-4-yl]-2,5-difluorobenzamide] | > 90 | 2 to 10 |
| CCOc1cc(-c2ccc(N3CCC(CN4CCN(CCOCCC(=O)N5CCC(c6ccc7c(c6)C(=O)N(C6CCC(=O)NC6=O)C7)CC5)CC4)(NC(=O)c4cc(F)ccc4F)CC3)nc2)c2c(C#N)cnn2c1 (stereo not drawn) [Example 101, N-[1-(5-{3-cyano-6-ethoxypyrazolo[1,5-a]pyridin-4-yl}pyridin-2-yl)-4-({4-[2-(3-{4-[2-(2,6-dioxopiperidin-3-yl)-3-oxo-2,3-dihydro-1H-isoindol-5-yl]piperidin-1-yl}-3-oxopropoxy)ethyl]piperazin-1-yl}methyl)piperidin-4-yl]-2,5-difluorobenzamide] | > 90 | 10 to 100 |
| CCOc1cc(-c2ccc(N3CCC(CN4CCN(CCOCCC(=O)N5CCN(c6ccc7c(c6)C(=O)N(C6CCC(=O)NC6=O)C7)CC5)CC4)(NC(=O)c4cc(F)ccc4F)CC3)nc2)c2c(C#N)cnn2c1 (stereo not drawn) [Example 103, N-[1-(5-{3-cyano-6-ethoxypyrazolo[1,5-a]pyridin-4-yl}pyridin-2-yl)-4-({4-[2-(3-{4-[2-(2,6-dioxopiperidin-3-yl)-3-oxo-2,3-dihydro-1H-isoindol-5-yl]piperazin-1-yl}-3-oxopropoxy)ethyl]piperazin-1-yl}methyl)piperidin-4-yl]-2,5-difluorobenzamide] | > 90 | 10 to 100 |
| CCOc1cc(-c2ccc(N3CCC(CN4CCN(C(=O)CCOCCN5CCN(c6ccc7c(c6)CN(C6CCC(=O)NC6=O)C7=O)CC5)CC4)(NC(=O)c4cc(F)ccc4F)CC3)nc2)c2c(C#N)cnn2c1 (stereo not drawn) [Example 104, N-[1-(5-{3-cyano-6-ethoxypyrazolo[1,5-a]pyridin-4-yl}pyridin-2-yl)-4-({4-[3-(2-{4-[2-(2,6-dioxopiperidin-3-yl)-1-oxo-2,3-dihydro-1H-isoindol-5-yl]piperazin-1-yl}ethoxy)propanoyl]piperazin-1-yl}methyl)piperidin-4-yl]-2,5-difluorobenzamide] | 60 to 90 | 2 to 10 |
| CCOc1cc(-c2ccc(N3CCC(CN4CCN(C(=O)CCOCCNc5ccc6c(N7CCC(=O)NC7=O)nn(C)c6c5)CC4)(NC(=O)c4cc(F)ccc4F)CC3)nc2)c2c(C#N)cnn2c1 [Example 105, N-[1-(5-{3-cyano-6-ethoxypyrazolo[1,5-a]pyridin-4-yl}pyridin-2-yl)-4-({4-[3-(2-{[3-(2,4-dioxo-1,3-diazinan-1-yl)-1-methyl-1H-indazol-6-yl]amino}ethoxy)propanoyl]piperazin-1-yl}methyl)piperidin-4-yl]-2,5-difluorobenzamide] | 60 to 90 | 2 to 10 |

Other lines, results leading:

| Dmax [%] | DC50 [nM] | Structure (SMILES) |
| --- | --- | --- |
| 60 to 90 | < 2 | CCOc1cc(-c2ccc(N3CCC(CN4CCN(C(=O)CCN5CCC6(CC5)CCN(c5ccc7c(c5)CN(C5CCC(=O)NC5=O)C7=O)CC6)CC4)(NC(=O)c4cc(F)ccc4F)CC3)nc2)c2c(C#N)cnn2c1 (stereo not drawn) [Example 91, N-[1-(5-{3-cyano-6-ethoxypyrazolo[1,5-a]pyridin-4-yl}pyridin-2-yl)-4-{[4-(3-{9-[2-(2,6-dioxopiperidin-3-yl)-1-oxo-2,3-dihydro-1H-isoindol-5-yl]-3,9-diazaspiro[5.5]undecan-3-yl}propanoyl)piperazin-1-yl]methyl}piperidin-4-yl]-2,5-difluorobenzamide] |
| > 90 | 2 to 10 | CCOc1cc(-c2ccc(N3CCC(CN4CCN(C(=O)C5CC6(C5)CC(N5CCC(c7ccc8c(c7)CN(C7CCC(=O)NC7=O)C8=O)CC5)C6)CC4)(NC(=O)c4cc(F)ccc4F)CC3)nc2)c2c(C#N)cnn2c1 (stereo not drawn) [Example 92, N-[1-(5-{3-cyano-6-ethoxypyrazolo[1,5-a]pyridin-4-yl}pyridin-2-yl)-4-{[4-(6-{4-[2-(2,6-dioxopiperidin-3-yl)-1-oxo-2,3-dihydro-1H-isoindol-5-yl]piperidin-1-yl}spiro[3.3]heptane-2-carbonyl)piperazin-1-yl]methyl}piperidin-4-yl]-2,5-difluorobenzamide] |
| > 90 | 2 to 10 | CCOc1cc(-c2ccc(N3CCC(CN4CCN(C(=O)C5CC6(CC(Nc7ccc8c(N9CCC(=O)NC9=O)nn(C)c8c7)C6)C5)CC4)(NC(=O)c4cc(F)ccc4F)CC3)nc2)c2c(C#N)cnn2c1 (stereo not drawn) [Example 93, N-[1-(5-{3-cyano-6-ethoxypyrazolo[1,5-a]pyridin-4-yl}pyridin-2-yl)-4-{[4-(6-{[3-(2,4-dioxo-1,3-diazinan-1-yl)-1-methyl-1H-indazol-6-yl]amino}spiro[3.3]heptane-2-carbonyl)piperazin-1-yl]methyl}piperidin-4-yl]-2,5-difluorobenzamide] |
| 60 to 90 | 2 to 10 | CCOc1cc(-c2ccc(N3CCC(CN4CCN(C5CC6(CC(C(=O)N7CCN(c8ccc9c(c8)CN(C8CCC(=O)NC8=O)C9=O)CC7)C6)C5)CC4)(NC(=O)c4cc(F)ccc4F)CC3)nc2)c2c(C#N)cnn2c1 (stereo not drawn) [Example 94, N-[1-(5-{3-cyano-6-ethoxypyrazolo[1,5-a]pyridin-4-yl}pyridin-2-yl)-4-{[4-(6-{4-[2-(2,6-dioxopiperidin-3-yl)-1-oxo-2,3-dihydro-1H-isoindol-5-yl]piperazine-1-carbonyl}spiro[3.3]heptan-2-yl)piperazin-1-yl]methyl}piperidin-4-yl]-2,5-difluorobenzamide] |
| 60 to 90 | 2 to 10 | CCOc1cc(-c2ccc(N3CCC(CN4CCN(C5CC6(CC(C(=O)N7CCC(c8ccc9c(c8)CN(C8CCC(=O)NC8=O)C9=O)CC7)C6)C5)CC4)(NC(=O)c4cc(F)ccc4F)CC3)nc2)c2c(C#N)cnn2c1 (stereo not drawn) [Example 95, N-[1-(5-{3-cyano-6-ethoxypyrazolo[1,5-a]pyridin-4-yl}pyridin-2-yl)-4-{[4-(6-{4-[2-(2,6-dioxopiperidin-3-yl)-1-oxo-2,3-dihydro-1H-isoindol-5-yl]piperidine-1-carbonyl}spiro[3.3]heptan-2-yl)piperazin-1-yl]methyl}piperidin-4-yl]-2,5-difluorobenzamide] |
| 60 to 90 | < 2 | CCOc1cc(-c2ccc(N3CCC(CN4CCC5(CC4)CCN(C(=O)COc4ccc6c(c4)CN(C4CCC(=O)NC4=O)C6=O)CC5)(NC(=O)c4cc(F)ccc4F)CC3)nc2)c2c(C#N)cnn2c1 (stereo not drawn) [Example 99, N-[1-(5-{3-cyano-6-ethoxypyrazolo[1,5-a]pyridin-4-yl}pyridin-2-yl)-4-{[9-(2-{[2-(2,6-dioxopiperidin-3-yl)-1-oxo-2,3-dihydro-1H-isoindol-5-yl]oxy}acetyl)-3,9-diazaspiro[5.5]undecan-3-yl]methyl}piperidin-4-yl]-2,5-difluorobenzamide] |
